In data set [1] the test system is HepG2 cells. The data set can be described thus: HepG2 cytotoxicity assay (Live/Dead staining). The following applies: for Percentage of live HepG2 cells compared with diluent controls: replicates. In short, it runs like this: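 Live/dead fluorescence microscopy (calcein-AM and ethidium homodimer, 1 µM each) read at 72 h post-treatment. Compounds dosed at 1 to 20 µM on HepG2 cells, with washing and fresh compound every 24 h.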

Data set [2] relates to P. falciparum NF54. The data set can be described thus: P. falciparum blood stage assay (SYBR Green). It is filed as cell-based, Plasmodium falciparum. The following applies: 72 h; for P. falciparum blood-stage development (parasite DNA level fluorescence): untreated = 129.
For data set [3], the system named is primary human hepatocytes. Nature of the data set: Nuclear counts (DAPI) in P. vivax-infected primary hepatocytes as measure of toxicity. The settings on record: two technical replicates. It is filed as cell-based. In short, it runs like this: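 Toxicity readout: DAPI nuclear counts normalized to DMSO wells, from confocal images of fixed P. vivax-infected single-donor primary human hepatocytes. Compounds, up to 20 µM, were applied daily from day 5 until day 8 post-infection; two technical replicates.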

For data set [4], the target named is T1, HsNMT1 (Homo sapiens, UniProt P30419).
T1 sequence (P30419 1-496): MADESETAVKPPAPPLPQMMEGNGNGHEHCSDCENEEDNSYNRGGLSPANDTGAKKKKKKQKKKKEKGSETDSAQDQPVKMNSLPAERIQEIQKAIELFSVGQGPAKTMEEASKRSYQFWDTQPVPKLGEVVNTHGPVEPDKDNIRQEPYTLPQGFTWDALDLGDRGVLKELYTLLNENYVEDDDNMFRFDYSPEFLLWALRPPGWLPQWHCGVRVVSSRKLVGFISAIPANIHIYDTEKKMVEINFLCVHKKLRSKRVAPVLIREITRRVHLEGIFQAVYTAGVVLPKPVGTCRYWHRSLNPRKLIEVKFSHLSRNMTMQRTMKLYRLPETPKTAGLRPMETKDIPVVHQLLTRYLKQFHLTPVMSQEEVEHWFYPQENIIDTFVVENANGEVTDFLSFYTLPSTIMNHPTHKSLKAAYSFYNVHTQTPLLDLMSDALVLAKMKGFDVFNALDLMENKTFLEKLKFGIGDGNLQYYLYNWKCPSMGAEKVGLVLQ
The data set can be described thus: NMT activity assay (CPM detection of free CoA), HsNMT. The settings on record: read-out: HsNMT IC50; mean of two or more determinations.

Where “and” joins values, the source holds several entries; their conditions need not be identical. Equal entries are not always repeated. Where only a bound is given, the exact number is not on record here.

For `Cc1nn(C)c(C)c1CCOc1ccc2ccccc2c1-c1ccnc(N2CCNCC2)c1` [Compound 30a], the IC50 is greater than 20 µM in data set [1]; 0.44 µM in data set [2] (ring-stage parasites, relative IC50); 24 µM in data set [4]. The “Percentage of live HepG2 cells compared with diluent controls” value in data set [1] (1 μM) is 103.422% and 100.304%; in data set [1] (2.5 μM), 101.733% and 94.8731%; in data set [1] (5 μM), 94.7431% and 110.101%; in data set [1] (10 μM), 109.841% and 95.0809%; in data set [1] (20 μM), 87.0514% and 94.4833%. For the same compound, the “P. falciparum blood-stage development (parasite DNA level fluorescence)” value is 115.4 in data set [2] (0.625 uM); 121.5 in data set [2] (1.25 uM); 115.2 in data set [2] (2.5 uM); 95.74 in data set [2] (5 uM); 95.74 in data set [2] (10 uM). The “Nucleus counts per well” value in data set [3] (1 uM) was 15050 per well and 16480 per well; in data set [3] (2.5uM), 16520 per well and 15260 per well; in data set [3] (5 uM) it was 14210 per well and 14260 per well; in data set [3] (10uM) it was 14230 per well and 14010 per well; in data set [3] (20uM, P. vivax-infected wells), 13060 per well and 13510 per well.

A word on the IC50: it is the midpoint of a concentration-inhibition curve.

For the origin of these results see paper PMC10480161, “Identification of potent and selective N-myristoyltransferase inhibitors of Plasmodium vivax liver stage hypnozoites and schizonts” (Nature Communications, 2023).
